# Data published in US9447048B2, “Processes for the preparation of pesticidal compounds” (Dow AgroSciences LLC, priority 2013, dated 2016).
# Columns and labels:
# [1] = system: Green Peach Aphid (Myzus persicae) (MYZUPE); assay: Bioassay on Green Peach Aphid (GPA), foliar spray on cabbage seedlings; type: in vivo; settings: 200 ppm spray on cabbage leaves, graded after three days, live aphids, Abbott's correction
# Method: Several molecules disclosed herein were tested against GPA using procedures described below.
# Cabbage seedling grown in 3-in pots, with 2-3 small (3-5 cm) true leaves, were used as test substrate. The seedlings were infested with […] (wingless adult and nymph stages) one day prior to chemical application. Four pots with individual seedlings were used for each treatment. Test compounds (2 mg) were dissolved in 2 mL of acetone/MeOH (1:1) solvent, forming stock solutions of 1000 ppm test compound. The stock solutions were diluted 5× with 0.025% Tween 20 in water to obtain the solution at 200 ppm test compound. A hand-held aspirator-type sprayer was used for spraying a solution to both sides of the cabbage leaves until runoff. Reference plants (solvent check) were sprayed with the diluent only containing 20% by volume acetone/MeOH (1:1) solvent. Treated plants were held in a holding room for three days at approximately 25° C. and ambient relative humidity (RH) prior to grading. Evaluation was conducted by counting the number of live aphids per plant under a microscope. Percent Control was measured by using Abbott's correction formula (W. S. Abbott, “A Method of Computing the Effectiveness of an Insecticide” J. Econ. Entomol 18 (1925), pp. 265-267) as follows. Corrected % Control=100*(X−Y)/X • where • X=No. of live aphids on solvent check plants and • Y=No. of live aphids on treated plants
# The results are indicated in the table entitled “Table 1: GPA (MYZUPE) and sweetpotato whitefly-crawler (BEMITA) Rating Table”.
# [2] = system: Sweetpotato Whitefly Crawler (Bemisia tabaci) (BEMITA); assay: Bioassay on Sweetpotato Whitefly Crawler, foliar spray on cotton plants; type: in vivo; settings: 200 ppm spray on cotton leaf, graded after 8-9 days, live nymphs, Abbott's correction
# Method: Cotton plants grown in 3-inch pots, with 1 small (3-5 cm) true leaf, were used at test substrate. The plants were placed in a room with whitely adults. Adults were allowed to deposit eggs for 2-3 days. After a 2-3 day egg-laying period, plants were taken from the adult whitefly room. Adults were blown off leaves using a hand-held Devilbliss sprayer (23 psi). Plants with egg infestation (100-300 eggs per plant) were placed in a holding room for 5-6 days at 82° F. and 50% RH for egg hatch and crawler stage to develop. Four cotton plants were used for each treatment. Compounds (2 mg) were dissolved in 1 mL of acetone solvent, forming stock solutions of 2000 ppm. The stock solutions were diluted 10× with 0.025% Tween 20 in water to obtain a test solution at 200 ppm. A hand-held Devilbliss sprayer was used for spraying a solution to both sides of cotton leaf until runoff. Reference plants (solvent check) were sprayed with the diluent only. Treated plants were held in a holding room for 8-9 days at approximately 82° F. and 50% RH prior to grading. Evaluation was conducted by counting the number of live nymphs per plant under a microscope.
Compound,MYZUPE rating (% Control of Mortality) [1],BEMITA rating (% Control of Mortality) [2]
"Cl.Nc1c[nH]nc1Cl [Compound 1a, 3-chloro-1H-pyrazol-4-amine Hydrochloride]",B (More than 0-Less than 80),B (More than 0-Less than 80)
"O=C(CCSCCC(F)(F)F)Nc1cn(-c2cccnc2)nc1Cl [Compound 5.3, N-(3-chloro-1-(pyridin-3-yl)-1H-pyrazol-4-yl)-3-((3,3,3-trifluoropropyl)thio)propanamide]",A (80-100),B (More than 0-Less than 80)
"CCN(C(=O)CCSCCC(F)(F)F)c1cn(-c2cccnc2)nc1Cl [Compound 6.3, N-(3-chloro-1-(pyridin-3-yl)-1H-pyrazol-4-yl)-N-ethyl-3-((3,3,3-trifluoropropyl)thio)propanamide]",A (80-100),A (80-100)
"CCN(C(=O)CC[S+]([O-])CCC(F)(F)F)c1cn(-c2cccnc2)nc1Cl (stereo not shown) [Compound 7.3, N-(3-chloro-1-(pyridin-3-yl)-1H-pyrazol-4-yl)-N-ethyl-3-((3,3,3-trifluoropropyl)sulfoxo)propanamide]",A (80-100),A (80-100)
"O=C(CCSCCC(F)(F)F)Nc1c[nH]nc1Cl [Compound 2.3, N-(3-chloro-1H-pyraxol-4-yl)-3-((3,3,3,trifluoropropyl)thio)propanamide]",B (More than 0-Less than 80),B (More than 0-Less than 80)
